According to patent US7381428B2, “Stabilized lanthanum carbonate compositions” (Shire International Licensing B.V., priority 2003, dated 2008):

Key:
Assay type in all cases: physicochemical
[1] = Thermal and moisture stress study of lanthanum carbonate/excipient mixtures, decarboxylation to lanthanum hydroxycarbonate (HC) monitored by XRPD
Description: Excipient compatibility studies of hydrated lanthanum carbonate having a water content approximately equivalent to 4-5 moles of water and anhydrous lanthanum carbonate were performed to determine whether different classes of saccharide excipients would retard or prevent the appearance of decarboxylation products in thermally- and moisture-stressed solid lanthanum carbonate mixtures.
Conditions which would cause the formation of decarboxylation products in substantially pure hydrated lanthanum carbonate within one week were used. Mixtures of 1:1 or 96:4 (by weight) of hydrated lanthanum carbonate and a test excipient or 1:1 (by weight) anhydrous lanthanum carbonate and a test excipient were prepared and stressed, and samples were analyzed by XRPD (X-ray powder diffraction) as a function of exposure time.
Weighed samples of hydrated lanthanum carbonate/excipient (1:1 or 96:4 by weight) or anhydrous lanthanum carbonate/excipient (1:1 by weight) were sealed into scintillation vials and placed onto a Turbula mixer. Samples were mixed for ten minutes to ensure sample homogeneity.
Saturated salt solutions of Na2SO4.10H2O (˜95% RH (relative humidity)) or NaNO3 (65% RH) were prepared and placed into sealed chambers. The chambers were placed into a 60° C. oven overnight and the presence of solids was confirmed after 24 hours. These chambers were then subsequently used for the stressing studies of the various excipient/lanthanum carbonate mixtures. The lower humidity conditions were utilized for the D-sorbitol and dextrates excipients because they deliquesce under the more extreme conditions of 60° C./95% RH.
XRPD analyses were performed using a Shimadzu XRD-6000 X-ray powder diffractometer using Cu Kα radiation. […]
At the experimental onset, the hydrated lanthanum carbonate was stressed under two conditions, 60° C./95% RH and 60° C./65% RH, in order to establish a baseline for monitoring decarboxylation. Individual samples were pulled after 1, 2, 3, 4, and 7 days and immediately analyzed by XRPD. […]

[2] = Degradation to lanthanum hydroxycarbonate at room temperature / standard ambient conditions
[3] = Decarboxylation of hydrated lanthanum carbonate at standard ICH stability conditions, lanthanum hydroxycarbonate content by XRPD; conditions: 25° C./60% RH, 30° C./60% RH and 40° C./75% RH, up to 2 years
Description: Unformulated hydrated lanthanum carbonate and formulated hydrated lanthanum carbonate tablets containing approximately 50% (by weight) dextrates were exposed to the standard ICH stability conditions of 25° C./60% RH, 30° C./60% RH and 40° C./75% RH for a period up to 2 years. Samples were removed periodically over this time and tested for their lanthanum hydroxycarbonate content using x-ray powder diffraction.

Compound | time after which decarboxylation product HC was initially seen (XRPD) ([1]; 60° C./95% RH) | time within which degradation to lanthanum hydroxycarbonate occurs [2] | time after which decarboxylation product HC was initially seen (XRPD) ([1]; 60° C./65% RH) | degradation (decarboxylation) to lanthanum hydroxycarbonate [3]
O=C([O-])[O-].O=C([O-])[O-].O=C([O-])[O-].[La+3].[La+3] [substantially pure lanthanum carbonate, La2(CO3)3.xH2O] | 1 days | 9-12 months | – | –
hydrated lanthanum carbonate | one | – | single | significant degradation
